Reference: patent US20120015925A1, “NOVEL BENZOTHIAZEPINE AND BENZOTHIEPINE COMPOUNDS” (ASAHI KASEI PHARMA CORPORATION, priority 2004, published 2012)

Experiments:
[1] = tested on: rats fed cholesterol food; assay: Model for hepatic disorder associated with cholestasis (hepatic cell apoptosis): mitotic cells in liver; format: in vivo, rat; details: oral twice per day, 4 days, total in 10 sites of 200 μm×200 μm, control group 50 ± 13
Description: In the present test example, a model for the hepatic disorder associated with cholestasis was employed with reference to apoptosis induction in hepatic cells in a hypercholesterolemia model described in Am. J. Physiol., 1995, 268, G613-G621.
That is, the food containing 0.4% cholesterol and 0.5% bile acid was given to SD (IGS) strain male rats at 7 to 9 weeks of age for 4 days, and the test compound was orally administered forcibly twice per day everyday from the starting date of cholesterol food feeding (each n=8). As a control, another group (n=8) were merely fed cholesterol food. The blood was exsanguinated from abdominal aorta 3 hours after the drug administration on the final day of the experiment. Then the liver was immediately removed and fixed in 10% neutral buffered formalin solution (brand name: FA-F96, supplied from Kokusan Chemical Co. Ltd.). After fixing, the sample was dehydrated and embedded using a closed type automatic embedding apparatus (brand name: ETP-180B, supplied from Sakura Finetek Japan). […] A total number of mitotic cells in different 10 sites in the range of 200 μm×200 μm on each section was counted.

[2] = biological target: T1, human IBAT transporter in which alanine at position 171 has been substituted with serine (Homo sapiens, UniProt Q12908); assay: In vitro assay using Cos 7 cells, human IBAT with alanine 171 substituted with serine; format: cell-based; details: 10 nM test compound
T1 sequence (Q12908 1-348): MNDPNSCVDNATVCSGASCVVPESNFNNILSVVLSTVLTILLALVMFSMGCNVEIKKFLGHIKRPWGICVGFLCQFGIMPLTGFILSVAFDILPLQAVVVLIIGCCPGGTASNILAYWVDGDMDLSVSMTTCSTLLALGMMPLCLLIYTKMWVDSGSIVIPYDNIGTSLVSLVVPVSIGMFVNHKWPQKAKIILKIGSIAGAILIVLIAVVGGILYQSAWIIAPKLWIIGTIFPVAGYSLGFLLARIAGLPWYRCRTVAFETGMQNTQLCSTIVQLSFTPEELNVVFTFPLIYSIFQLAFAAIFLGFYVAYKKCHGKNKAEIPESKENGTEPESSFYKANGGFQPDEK

ALANINE TRANSPORTER = assay: In vitro assay using Cos 7 cells for Na+ dependent amino acid transporter ([3H]-alanine uptake); format: cell-based; details: [3H]-alanine 8 μM, 37° C., 60 minutes, read-out: IC50 (μM) AGAINST ALANINE TRANSPORTER
Description: In the present Test Example, in vitro assays of the compounds using Cos 7 cells for various transporters were performed according to the description in JP-H10-505830 A.
That is, 2.5×10^5 cells/well of Cos 7 cells were seeded in a 24-well plate, and after two days, the cells were washed once with the assay buffer, i.e., Hanks buffer containing 25 mM glucose and 10 mM HEPES (pH 7.4). The assay buffer was then replaced with the assay buffer containing the test compound. [^3H]-alanine (brand name: NET-348, Daiich Pure chemical) or [^3H]-leucine (brand name: NET-460, Daiich Pure chemical) or [^3H]-phenylalanine (brand name: MT903, MORAVEK) or [^3H]-methionine (brand name: MT862, MORAVEK) or [^3H]-lysine (brand name: MT909, MORAVEK) or [^3H]-choline (brand name: TRK593, Amersham Biosciences) at a final concentration of 8 μM was added thereto and incubated at 37° C. for 60 minutes so that they were taken into Cos 7 cells. […] Then the radioactivity was measured using the liquid scintillation counter. The inhibitory rate (%) was calculated from the radioactivity in the control in which no test compound had been used and the radioactivity when the test compound at the certain concentration had been used, and the concentration of the compound which inhibited 50% of the transporter activity was calculated.

rat IBAT = biological target: T2, rat IBAT (Rattus norvegicus, UniProt Q62633); assay: In vitro assay using Cos 7 cells, transiently expressed rat IBAT; format: cell-based; details: [3H]-taurocholate 8 μM uptake, 37° C., 60 minutes
T2 sequence (Q62633 1-348): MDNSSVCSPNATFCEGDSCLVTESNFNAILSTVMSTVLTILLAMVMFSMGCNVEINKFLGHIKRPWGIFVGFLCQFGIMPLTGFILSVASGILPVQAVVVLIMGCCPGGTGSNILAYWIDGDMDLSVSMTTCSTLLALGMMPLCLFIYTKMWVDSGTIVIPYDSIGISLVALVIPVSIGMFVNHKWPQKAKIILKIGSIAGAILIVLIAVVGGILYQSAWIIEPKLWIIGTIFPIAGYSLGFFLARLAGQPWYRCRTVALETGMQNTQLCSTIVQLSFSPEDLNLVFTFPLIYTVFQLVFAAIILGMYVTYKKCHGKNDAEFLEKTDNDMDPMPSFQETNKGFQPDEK
Description: In the present Test Example, an in vitro assay of compounds using Cos 7 cells as to inhibitory activity on transiently expressed human IBAT or rat IBAT transporter was performed according to the method described in Am. J. Physiol., 274, G157-169.
That is, […] cells/well of Cos 7 cells were seeded in a 24-well plate, and after one day, the cells were transfected with 0.3 μg/well of cDNA of human IBAT or rat IBAT using FuGENE6 (supplied from Roche). After culturing for one day after the transfection, the cells were washed once with the assay buffer, i.e., Hanks buffer containing 25 mM glucose and 10 mM HEPES (pH 7.4). The assay buffer was then replaced with the assay buffer containing the test compound. [^3H]-Taurocholate at a final concentration of 8 μM was added thereto and incubated at 37° C. for 60 minutes so that [^3H]-taurocholate was taken into Cos 7 cells by the action of human IBAT or rat IBAT. The cells were washed twice with the assay buffer containing 1 mM taurocholate, and subsequently lysed with 0.2 M NaOH to stop the reaction. The cell lysate was added to 4 mL of liquid scintillation cocktail, which was then thoroughly vortexed. Then the radioactivity was measured using the liquid scintillation counter.

Row | SMILES | MITOTIC CELLS IN LIVER (AVERAGE ± STANDARD ERROR, n = 8) ([1]; 0.1 mg/kg per administration) | MITOTIC CELLS IN LIVER (AVERAGE ± STANDARD ERROR, n = 8) ([1]; 1 mg/kg per administration) | Cos 7 WITH HUMAN IBAT IN WHICH 171ST ALANINE IS SUBSTITUTED WITH SERINE INHIBITION (%) AT TEST COMPOUND CONCENTRATION OF 10 nM [2] | IC50 (ALANINE TRANSPORTER) | IC50 (rat IBAT)
1 | CCCCC1(CCCC)CS(=O)(=O)c2ccc(N(C)C)cc2C(c2cccc(NC(=S)CCCCC[N+]34CCC(CC3)CC4)c2)N1.[Br-] (centres unmarked) [EXAMPLE 1, 1-{5-[3-(3,3-dibutyl-7-dimethylamino-1,1-dioxo-2,3,4,5-tetrahydro-1,4-benzothiazepine-5-yl)phenylthiocarbamoyl]pentyl}-1-azoniabicyclo[2.2.2]octane bromide] | 36 ± 13 | 28 ± 7 | 53% | 33 µM | –
2 | CCCCC1(CCCC)CS(=O)(=O)c2ccc(N(C)C)cc2C(c2cccc(NC(=S)Nc3ccc(C[N+](C)(C)Cc4ccccc4)cc3)c2)N1.[Br-] (centres unmarked) [EXAMPLE 3440] | – | – | – | – | 0.01 µM
